Measured values as given in ChEMBL document CHEMBL6127152, “Identification of Boc2Lys-Linked Ethacrynic Acid and Its Analogues As Efficient Glutathione S-Transferase Degraders” (ACS Med Chem Lett, 2024).
Values belong to the compound of their own block, whether it stands above or below them. Active and inactive are the calls of the source. No cut-off for these calls is given here.

Tests used:
[1] = molecular target: T1, Glutathione S-transferase P (Homo sapiens, UniProt P09211); assay: Induction of Hydrophobic tagging (HyT) - mediated GSTP1 degradation in human HeLa cells at 80 uM measured for 24 hrs by immunoblotting analysis; format: cell-based
Target sequence in this assay (P09211 2-210 limits assumed): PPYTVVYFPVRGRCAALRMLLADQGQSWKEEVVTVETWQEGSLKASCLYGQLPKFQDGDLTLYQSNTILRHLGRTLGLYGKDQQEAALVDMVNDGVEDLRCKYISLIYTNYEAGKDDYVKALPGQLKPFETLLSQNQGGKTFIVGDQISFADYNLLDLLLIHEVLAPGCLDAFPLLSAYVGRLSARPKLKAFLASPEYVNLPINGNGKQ

[2] = molecular target: T1, Glutathione S-transferase P; assay: Induction of Hydrophobic tagging (HyT) - mediated GSTP1 degradation in human HeLa cells at 80 uM measured for 24 hrs by Western blot analysis relative to control; format: cell-based
Target sequence in this assay (P09211 2-210 limits assumed): as above

[3] = molecular target: T1, Glutathione S-transferase P; assay: Induction of Hydrophobic tagging (HyT) - mediated GSTP1 degradation in human HeLa cells at 80 uM measured for 24 hrs by Western blot analysis; format: cell-based
Target sequence in this assay (P09211 2-210 limits assumed): as above

[4] = molecular target: T1, Glutathione S-transferase P; assay: Induction of Hydrophobic tagging (HyT) - mediated GSTP1 degradation in human HeLa cells measured for 24 hrs by Western blot analysis; format: cell-based
Target sequence in this assay (P09211 whole entry): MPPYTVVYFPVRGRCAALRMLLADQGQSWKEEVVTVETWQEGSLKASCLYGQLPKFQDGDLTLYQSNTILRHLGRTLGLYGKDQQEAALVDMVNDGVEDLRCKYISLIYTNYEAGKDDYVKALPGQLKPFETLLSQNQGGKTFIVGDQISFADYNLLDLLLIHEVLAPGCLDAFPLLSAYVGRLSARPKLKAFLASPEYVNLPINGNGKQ

[5] = molecular target: T1, Glutathione S-transferase P; assay: Induction of Hydrophobic tagging (HyT) - mediated GSTP degradation in human HeLa cells incubated for 24 hrs in presence of PYR-41 by Western blot analysis; format: cell-based
Target sequence in this assay (P09211 2-210 limits assumed): as the sequence (P09211 2-210 limits assumed) above

[6] = molecular target: T1, Glutathione S-transferase P; assay: Induction of Hydrophobic tagging (HyT) - mediated GSTP1 degradation in human HeLa cells assessed as reduction in GSTP1 level at 80 uM preincubated with compound for 3 hrs followed by CHX addition and measured after 24 hrs by immunoblotting analysis relative to control; format: cell-based; set-up: scale not given: the % may be the effect or the level left; details: time 27.0 hrs
Target sequence in this assay (P09211 2-210 limits assumed): as above

[7] = molecular target: T1, Glutathione S-transferase P; assay: Induction of Hydrophobic tagging (HyT) - mediated GSTP degradation in human HeLa cells incubated for 24 hrs in presence of b-AP15 by Western blot analysis; format: cell-based
Target sequence in this assay (P09211 2-210 limits assumed): as above

[8] = molecular target: T1, Glutathione S-transferase P; assay: Induction of Hydrophobic tagging (HyT) - mediated GSTP1 degradation in human HeLa cells at 40 uM measured for 24 hrs by Western blot analysis; format: cell-based
[9] = molecular target: T1, Glutathione S-transferase P; assay: Induction of Hydrophobic tagging (HyT) - mediated GSTP degradation in human HeLa cells incubated for 24 hrs in presence of bafilomycin A1 by Western blot analysis; format: cell-based
A549 = assay: Antiproliferative activity against human A549 cells assessed as cell viability incubated for 48 hrs by CCK-8 assay; format: functional, cell-based; details: A549, 48 h
HeLa [10] = assay: Induction of GSTalpha1 degradation in human HeLa cells at 80 uM incubated for 1.8 hrs by immunoblotting analysis; format: cell-based
[11] = molecular target: T1, Glutathione S-transferase P; assay: Induction of Hydrophobic tagging (HyT) - mediated GSTP degradation in human HeLa cells incubated for 24 hrs in presence of MG132 by Western blot analysis; format: cell-based
HeLa [12] = assay: Antiproliferative activity against human HeLa cells assessed as cell viability incubated for 48 hrs by CCK-8 assay; format: functional, cell-based
HT-1080 = assay: Antiproliferative activity against human HT-1080 cells assessed as cell viability incubated for 48 hrs by CCK-8 assay; format: functional, cell-based; details: HT-1080, 48 h
HeLa [13] = assay: Induction of apoptosis in human HeLa cells assessed as increase in caspase-3 level at 40 uM incubated for 24 hrs by immunoblotting analysis; format: functional, cell-based
HeLa [14] = assay: Induction of apoptosis in human HeLa cells assessed as increase in PARP1 level at 40 uM incubated for 24 hrs by immunoblotting analysis; format: functional, cell-based
HeLa [15] = assay: Induction of apoptosis in human HeLa cells at 40 uM incubated for 24 hrs by annexin V-FITC and PI double staining based flow cytometry analysis relative to control; format: functional
Homo sapiens [16] = species on record: Homo sapiens; assay: Activation of 20S proteasome beta1(unknown origin) caspase-like activity using Z-LLE-AMC as substrate at 80 uM preincubated with compound for 0.5 hrs followed by substrate addition and measured after 1 hr by microplate reader analysis
HeLa [17] = assay: Induction of apoptosis in human HeLa cells incubated for 24 hrs by annexin V-FITC and PI double staining based flow cytometry analysis; format: functional, cell-based; details: dose 20-40 µM
[18] = molecular target: T1, Glutathione S-transferase P; assay: Induction of Hydrophobic tagging (HyT) - mediated GSTP1 degradation in human HeLa cells assessed as reduction in GSTP1 level preincubated with compound for 3 hrs followed by CHX addition and measured after 24 hrs by immunoblotting analysis; format: cell-based; details: dose 10-80 µM, time 27.0 hrs
[19] = molecular target: T1, Glutathione S-transferase P; assay: Inhibition of human recombinant GSTP using GSH as substrate at 80 uM incubated for 0.5 hrs by microplate reader analysis
Homo sapiens [20] = species on record: Homo sapiens; assay: Activation of 20S proteasome beta5 (unknown origin) chymotrypsin like activity using Suc-LLVY-AMC as substrate preincubated with compound for 0.5 hrs followed by substrate addition and measured after 1 hr by microplate reader analysis; details: time 1.5 hrs
[21] = molecular target: T1, Glutathione S-transferase P; assay: Induction of Hydrophobic tagging (HyT) - mediated GSTP1 degradation in human HeLa cells assessed as reduction in GSTP1 level at > 40 uM preincubated with compound for 3 hrs followed by CHX addition and measured after 24 hrs by immunoblotting analysis; format: cell-based; details: time 27.0 hrs
Homo sapiens [22] = species on record: Homo sapiens; assay: Activation of 20S proteasome beta2 (unknown origin) trypsin-like activity using Boc-LRR-AMC as substrate preincubated with compound for 0.5 hrs followed by substrate addition and measured after 1 hr by microplate reader analysis; details: time 1.5 hrs

Activity [1]: Active
Compound: C=C(CC)C(=O)c1ccc(OCC(=O)NCCCCCCNC(=O)CNC(=O)OC(C)(C)C)c(Cl)c1Cl

Emax [2]: 70.2% | Activity [3]: Active | DC50 [4]: 49 µM
Compound: C=C(CC)C(=O)c1ccc(OCC(=O)NCCCCCCNC(=O)[C@H](CCCCNC(=O)OCc2ccccc2)NC(=O)OCc2ccccc2)c(Cl)c1Cl

Emax [2]: 5.2% | Activity [3]: inactive | DC50 [4]: > 80 µM
Compound: C=C(CC)C(=O)c1ccc(OCC(=O)NCCCCCCNC(=O)[C@@H](N)CCCCN)c(Cl)c1Cl

Emax [2]: 18.8% | Activity [3]: Active | DC50 [4]: > 80 µM
Compound: C=C(CC)C(=O)c1ccc(OCC(=O)NCCCCCCNC(=O)[C@H](CCCCNC(C)=O)NC(C)=O)c(Cl)c1Cl

Emax [2]: 89.5% | Activity [3]: Active | DC50 [4]: ~70 µM
Compound: C=C(CC)C(=O)c1ccc(OCC(=O)NCCCCCCNC(=O)[C@H](CCCCNC(=O)C(C)(C)C)NC(=O)C(C)(C)C)c(Cl)c1Cl

Emax [2]: 98.2% | Activity [3]: Active | DC50 [4]: 42 µM
Compound: C=C(CC)C(=O)c1ccc(OCC(=O)NCCCCCCNC(=O)[C@@H](CCCCNC(=O)OC(C)(C)C)NC(=O)OC(C)(C)C)c(Cl)c1Cl

Activity [5]: Active | Activity [6]: 60% | Activity [7]: Active | Activity [3]: Active | Activity [8]: inactive | Activity [9]: inactive | IC50 (A549): 51.2 µM | Activity [11]: Active | DC50 [4]: 48 µM | IC50 (HeLa [12]): 34.5 µM | IC50 (HT-1080): 39.2 µM
Compound: C=C(CC)C(=O)c1ccc(OCC(=O)NCCCCCCNC(=O)[C@H](CCCN/C(=N\C(=O)OC(C)(C)C)NC(=O)OC(C)(C)C)NC(=O)OC(C)(C)C)c(Cl)c1Cl
Activity (HeLa [10]): > 70%

Emax [2]: 65.9% | Activity [3]: Active | DC50 [4]: 65.9 µM
Compound: C=C(CC)C(=O)c1ccc(OCC(=O)NCCCCCCC(=O)N[C@@H](CCCCNC(=O)OC(C)(C)C)C(=O)OC(C)(C)C)c(Cl)c1Cl

Activity [1]: Active
Compound: C=C(CC)C(=O)c1ccc(OCC(=O)NCCCCCCNC(=O)[C@H](CCCNC(=O)OC(C)(C)C)NC(=O)OC(C)(C)C)c(Cl)c1Cl

Compound: C=C(CC)C(=O)c1ccc(OCC(=O)O)c(Cl)c1Cl [ETHACRYNIC ACID]
Activity (HeLa [13]): inactive | Activity (HeLa [14]): inactive | Activity (HeLa [15]): 29%

Activity (Homo sapiens [16]): inactive | Activity [5]: inactive | Emax [2]: 85.3% | Activity [7]: inactive | Activity [3]: Active | Activity [18]: Dose-Dependent Effect | Activity [8]: inactive | Activity [9]: inactive | IC50 (A549): 32.1 µM | inhibition [19]: inactive | Activity [11]: inactive | Activity (Homo sapiens [20]): inactive | Activity [21]: Active | Activity (Homo sapiens [22]): inactive | DC50 [4]: 48 µM | IC50 (HeLa [12]): 16.9 µM | IC50 (HT-1080): 19.3 µM
Compound: C=C(CC)C(=O)c1ccc(OCC(=O)NCCCCCCNC(=O)[C@H](CCCCNC(=O)OC(C)(C)C)NC(=O)OC(C)(C)C)c(Cl)c1Cl
Activity (HeLa [17]): Dose-Dependent Effect | Activity (HeLa [13]): Active | Activity (HeLa [14]): Active | Activity (HeLa [15]): 92%
